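Test compounds were applied to cells in 96-well plates for 48 hours at 5 doses. The concentration for 50% growth inhibition is given as GI50. The concentration for full growth arrest is given as TGI.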

Test systems include DU-145 prostate; HT29 colon; IGROV1 ovarian; M14 melanoma; MCF7 breast; MOLT-4 leukemia; PC-3 prostate; RXF 393 renal; SNB-19 CNS; SW-620 colon.
Holding throughout (experiment): NCI anticancer screen, dose series, 48 h

For `CN(CCN1C(=O)c2cccc3cccc(c23)C1=O)CCN1C(=O)c2cccc3cccc(c23)C1=O`, the TGI with DU-145 prostate, with HT29 colon, in the experiment with IGROV1 ovarian, with M14 melanoma, in the experiment on MCF7 breast and in the experiment on MOLT-4 leukemia was greater than 100 µM each time. The values for the TGI in the experiment with PC-3 prostate, with RXF 393 renal and in the experiment on SNB-19 CNS were greater than 100 µM, 76.9 µM and 16.8 µM, respectively.
On to `CCCC(=O)Nc1cc(/C=C/C(=O)N2CC(CCl)c3c2cc(OC(C)=O)c2[nH]cc(C)c32)n(C)c1` (centres undefined), for which the TGI was 0.00453 µM with DU-145 prostate; greater than 0.25 µM in the experiment on HT29 colon; greater than 0.25 µM in the experiment on IGROV1 ovarian; greater than 0.0759 µM with MCF7 breast; 0.00436 µM with MOLT-4 leukemia; less than 2.5e-05 µM with RXF 393 renal. Further, the TGI in the experiment on SNB-19 CNS was 0.0436 µM; in the experiment with SW-620 colon, greater than 0.25 µM.
`CN(CCCNC(=O)c1nn(-c2ccccc2)c2c1Cc1ccccc1-2)CCCNC(=O)c1nn(-c2ccccc2)c2c1Cc1ccccc1-2`: the TGI worked out at 3.21 µM with DU-145 prostate; 3.42 µM with HT29 colon; 3.07 µM with IGROV1 ovarian; 2.61 µM in the experiment with M14 melanoma; 2.99 µM in the experiment on MCF7 breast; 2.95 µM with MOLT-4 leukemia. The TGI with PC-3 prostate came out at 3.09 µM; with SNB-19 CNS, 3.07 µM; in the experiment on SW-620 colon it was 2.63 µM.
On to `CC(C)C(=O)CC(c1ccc(Br)cc1)N1N=C(C(C)C)CC1c1ccc(Br)cc1` (centres undefined), for which the TGI in the experiment with HT29 colon, in the experiment with M14 melanoma, in the experiment with MOLT-4 leukemia, in the experiment on RXF 393 renal, in the experiment with SNB-19 CNS and in the experiment with SW-620 colon was greater than 100 µM each time.
In the case of `CC1(C)CC(C(=O)OCCCCCCCCCCC[P+](c2ccccc2)(c2ccccc2)c2ccccc2)C(C)(C)N1O` (centres undefined), the GI50 in the experiment on DU-145 prostate is 0.319 µM; with HT29 colon it was 0.21 µM; in the experiment with M14 melanoma, 0.302 µM; with MCF7 breast, 0.187 µM; in the experiment on SNB-19 CNS it was 0.263 µM; in the experiment on SW-620 colon, 0.344 µM. Besides, the TGI in the experiment on DU-145 prostate amounted to 1.39 µM; in the experiment with HT29 colon, 1.17 µM; in the experiment on M14 melanoma, 1.08 µM; with MCF7 breast, 0.836 µM; in the experiment with SNB-19 CNS, 1.24 µM; in the experiment on SW-620 colon it was 1.45 µM.
Consider `CCCCSCCC(N)P(=O)(O)O` (centres undefined), for which the TGI in the experiment on DU-145 prostate, in the experiment with HT29 colon, in the experiment with IGROV1 ovarian, with M14 melanoma, with MCF7 breast and in the experiment on MOLT-4 leukemia was greater than 100 µM in each case. Further, the TGI in the experiment with PC-3 prostate, with SNB-19 CNS and with SW-620 colon was greater than 100 µM each time.
As to `Nc1ccc(Cc2ccc(N)c(C(=O)O)c2)cc1C(=O)O`, the TGI in the experiment on HT29 colon, with IGROV1 ovarian, with M14 melanoma, in the experiment with MCF7 breast, in the experiment on PC-3 prostate and in the experiment on RXF 393 renal was greater than 100 µM throughout. Further, the TGI in the experiment with SNB-19 CNS and with SW-620 colon was greater than 100 µM throughout.
As for `NC(N)=N/N=C/c1c(-c2cccs2)nc2n1CCS2`, the GI50 was 17.2 µM with HT29 colon; 34.9 µM in the experiment with IGROV1 ovarian; 17.6 µM with MCF7 breast; 13.9 µM with MOLT-4 leukemia; 19.7 µM with PC-3 prostate; 77.7 µM with RXF 393 renal. The figures for the GI50 with SNB-19 CNS and in the experiment with SW-620 colon were 22 µM and 17.9 µM, respectively. Moreover, the TGI with HT29 colon is 30.9 µM; with IGROV1 ovarian it was greater than 100 µM; with MCF7 breast, 35.1 µM; in the experiment with MOLT-4 leukemia it was 28.5 µM; in the experiment on PC-3 prostate, 36 µM; in the experiment with RXF 393 renal, greater than 100 µM. Further, the results for the TGI with SNB-19 CNS and with SW-620 colon were 57.8 µM and 41.7 µM, respectively.
For `C#C[C@]1(O)[C@@H](CO)O[C@@H](n2ccc(=O)[nH]c2=O)[C@@H]1O`, the TGI is 0.695 µM in the experiment on DU-145 prostate; greater than 100 µM in the experiment with HT29 colon; 2.59 µM with IGROV1 ovarian; 6.77 µM in the experiment with M14 melanoma; greater than 100 µM with MCF7 breast; greater than 29.6 µM in the experiment on PC-3 prostate. The TGI with SNB-19 CNS is greater than 62.1 µM; in the experiment on SW-620 colon, greater than 100 µM.
As for `OC1CCSc2ccccc21` (centres undefined), the TGI with HT29 colon, in the experiment on IGROV1 ovarian, in the experiment with M14 melanoma, with MOLT-4 leukemia, in the experiment with RXF 393 renal and in the experiment with SNB-19 CNS was greater than 100 µM throughout. The same compound returned a TGI with SW-620 colon greater than 100 µM.
`CS(=O)(=O)Nc1cccc(-c2ccc3ncnc(Nc4cncc(Cl)c4)c3c2)c1`: the GI50 with DU-145 prostate was 1.16 µM; in the experiment with HT29 colon, 1.85 µM; in the experiment on IGROV1 ovarian, 0.533 µM; in the experiment on MOLT-4 leukemia, 2.38 µM; in the experiment with RXF 393 renal it was 1.43 µM; in the experiment with SNB-19 CNS, 3.84 µM. Besides, the TGI was greater than 100 µM in the experiment on DU-145 prostate; 4.65 µM in the experiment on HT29 colon; 4.06 µM in the experiment on IGROV1 ovarian; 7.61 µM in the experiment on MOLT-4 leukemia; 4.41 µM in the experiment on RXF 393 renal; greater than 100 µM with SNB-19 CNS.

The values above are taken from PubChem BioAssay (NCI).
